Each structure is given as a SMILES string. Converted amounts (≈) assume the structure as drawn. Like-named read-outs stand apart in the source and are kept apart here.

Results on seven molecules are retold here after article PMC6269946, “Anti-Plasmodial Activity of Some Zulu Medicinal Plants and of Some Triterpenes Isolated from Them” (Molecules, 2013).

Assay [1] deals with chloroquine sensitive (CQS) strain of Plasmodium falciparum (D10). Kind of assay: In vitro antiplasmodial activity, parasite lactate dehydrogenase assay. It is filed as cell-based. The settings on record: for IC50: Plasmodium falciparum. Here is the method:
The test samples (crude extracts, isolates, and chemical derivatives) were tested in triplicate against a chloroquine sensitive (CQS) strain of Plasmodium falciparum (D10). Continuous in vitro cultures of asexual erythrocyte stages of P. falciparum were maintained using modified method of Trager and Jensen. Quantitative assessment of anti-plasmodial activity in vitro was determined via the parasite lactate dehydrogenase assay using a modified method described by Makler. The test samples were prepared to a 20 mg/mL stock solution in 100% DMSO and sonicated to enhance solubility. Stock solutions were stored at −20 °C. Further dilutions were prepared on the day of the experiment. Chloroquine and artesunate were used as the reference drugs for experiments. A full dose-response was performed for all active compounds to determine the concentration inhibiting 50% of parasite growth (IC50-value). Test samples were tested at a starting concentration of 100 μg/mL, which was then serially diluted 2-fold in complete medium to give 10 preparations of variable concentrations; with the lowest concentration being 0.2 μg/mL. The same dilution technique was used for all samples. CQ was tested at a starting concentration of 1,000 ng/mL. The highest concentration of solvent to which the parasite-infected erythrocytes were exposed to had no measurable effect on the parasite viability (data not shown). The IC50-values were obtained using a non-linear dose-response curve fitting analysis via Graph Pad Prism v.4.0 software (Graph Pad Prism, Inc: San Diego, CA, USA, 1994–2003).

The test system of another assay is Plasmodium berghei. The assay can be described thus: In vivo antiplasmodial activity, four-day suppressive test in infected mice. More on the design: species or system Swiss mice. The following applies: P. berghei infected mice, oral for four consecutive days, smears on day five; chloroquine 5 mg/kg/day; dose not given (50-400 mg/kg/day groups). Here is the method:
This study was carried out after the approval from the Ethical Committee on Animal Use and Care of the University of Zululand (UZREC 171110-030 PGD 2013/26). Swiss mice (20-25 g each) of both sexes were obtained from biomedical research unit (BRU) in the University of […], Durban. They were kept in plastic cages, and given standard laboratory diet and water ad libitum and maintained under laboratory conditions of temperature and 12 h light and 12 h dark cycle. The animals were allowed to acclimatize to the laboratory at a controlled temperature of 22 °C for 15 days before being subjected to the experiments. The animals were divided into seven groups (eight in each group) consisting of control, chloroquine (5 mg/kg/day), and the extract treated group. The extract treated group was sub divided into five sub groups that received 50, 100, 200, 300 and 400 mg/kg/day body weight respectively. A single donor mouse infected with Plasmodium berghei parasites was bled into sterile heparinized culture medium and the blood was diluted with RPMI 1640 medium. The healthy experimental mice were infected intravenously via a tail vein with 0.2 mL of the diluted blood containing 1 × 10^7 parasitized (Plasmodium berghei) red blood cells on day one. The antimalarial activity tests were performed using the four-day suppressive tests described by Peters et al.. The extracts dissolved in 0.5% carboxymethyl cellulose (CMC) were administered orally using cannula (equivalent to 0.2 mL solution per mouse) for four consecutive days. […] The percent parasitemia suppression was determined by counting the number of parasitized erythrocytes out of 500 red blood cells on random fields under the microscope. The average percentage suppression of parasitemia was calculated using the following formula: % suppression = A - B/C (1) where A = % parasitemia in untreated controls, B = % parasitemia in treated groups, and C = % parasitemia in untreated controls. The data were analyzed using the F-test.

The mark [2] stands for this setting: P. falciparum CQS D10 strain, in vitro, pLDH assay, triplicate, starting concentration 100 μg/mL, read-out: IC50 (anti-plasmodial activity, concentration inhibiting 50% of parasite growth).

Regarding `C[C@H]1[C@H](C)CC[C@]2(C(=O)O)CC[C@]3(C)C(=CC[C@@H]4[C@@]5(C)CCC(=O)C(C)(C)[C@@H]5CC[C@]43C)[C@H]12` [3-oxo-ursolic acid], the IC50 in assay [1] (setting [2]) worked out at 7.3 µg/mL (≈ 16.1 µM).
In the case of `C[C@H]1[C@H](OC(=O)CCC(=O)O)O[C@@H]2O[C@@]3(C)CC[C@H]4[C@H](C)CC[C@@H]1[C@@]24OO3` [Artesunate, reference compound], the IC50 in assay [1] (P. falciparum CQS D10 strain, in vitro, pLDH assay, values marked * = ng/mL, read-out: IC50 (anti-plasmodial activity), reference drugs) was determined as 0.0051 µg/mL (≈ 0.0133 µM).
Regarding `CCN(CC)CCCC(C)Nc1ccnc2cc(Cl)ccc12` (centres unmarked) [Chloroquine, reference compound], the IC50 in assay [1] (D10, read-out: IC50 (anti-plasmodial activity), reference drugs) came to 0.0141 µg/mL (≈ 0.0441 µM). In the assay with Plasmodium berghei, the “Average % suppression (of parasitemia)” value was found to be 83.43%.
Turning to `CO[C@H]1CC[C@@]2(C)C(CC[C@@]3(C)C4=CC[C@@]5(C)CCC(C)(C)CC5[C@]4(C)CCC23)C1(C)C` (some centres unmarked) [Sawamilletin, sawamilletin], the IC50 in assay [1] (setting [2]) is greater than 100 µg/mL.
Still for that read-out and setting: next, `CC1(C)CC[C@]2(C)CC=C3[C@]4(C)CC[C@H]5C(C)(C)[C@@H](O)CC[C@]5(C)[C@H]4CC[C@@]3(C)[C@@H]2C1` [Taraxerol, taraxerol]: greater than 100 µg/mL.
Consider `CC(=O)O[C@H]1CC[C@]2(C)[C@H]3CC=C4[C@@H]5[C@@H](C)[C@H](C)CC[C@]5(C(=O)O)CC[C@@]4(C)[C@]3(C)CC[C@H]2C1(C)C` [Ursolic acid acetate, 3β-acetylursolic acid], for which the IC50 in assay [1] (setting [2]) amounted to 1.9 µg/mL. Moreover, the “Increase in the in vitro anti-malarial activity relative to ursolic acid” value in assay [1] (acetate derivative versus ursolic acid, P. falciparum D10) was found to be 72%. Further, in the assay with Plasmodium berghei, the Average % parasitemia is listed as 0.07% and the “Average % suppression (of parasitemia)” value is reported as 94.01%.
Regarding `C[C@H]1[C@H](C)CC[C@]2(C(=O)O)CC[C@]3(C)C(=CC[C@@H]4[C@@]5(C)CC[C@H](O)C(C)(C)[C@@H]5CC[C@]43C)[C@H]12` [Ursolic acid, ursolic acid], in assay [1] (setting [2]), the IC50 stood at 6.8 µg/mL (≈ 14.9 µM).
